# Patent US20220202912A1, “Polypeptides in Preparation of Drugs for Treatment or Prevention of Rheumatoid Arthritis” (priority 2011, published 2022)
# “And” between values parts separate entries of the source, which are not always exact repeats. Equal values may be shown once. Where no end group is shown, it is not given here.
# Legend:
# [1] = test system: CIA transgenic TNF-luc mice; assay: collagen type II-induced arthritis in transgenic TNF-luc mice (swelling, scores, weight); assay type: in vivo, BALB/c transgenic TNF-luc mice; set-up: key to joint index score / arthritis index score: 0–4 per paw, four paws summed, max 16; key to swelling degree of right ankle: cm, day n thickness minus initial ankle thickness; key to systemic score: systemic score points, max 8; settings: for left ankle swelling / right ankle swelling changes / arthritis index score / clinical score: Adalimumab 8 mg/kg, mPEG-SC20k-HM-3 20 mg/kg; for right ankle swelling changes: CIA TNF-luc mice; for right ankle swelling changes / arthritis index score / clinical score: mean ± SD; for arthritis index score / clinical score: CIA chronic model; for systemic score / joint index score / swelling degree of right ankle: 20 mg/kg
# Description: 8 animals are randomly divided into 4 groups (n=2), a normal group, a model group, a positive drug group and a test group. On day 0, for the primary immunization, mice are hypodermically injected with 50 μL collagen emulsifier (containing CII 100 μg/ mouse) at the tail root of mice for sensitization. On day 0, initial ankle widths, initial foot palm widths and initial toe thicknesses of left and right feet of mice in each group are measured separately.
# After day 21, the same dosage of emulsifier is used for second immunization at the tail root. After the symptoms such as redness and swelling of joints appear on the four toes of mice, continuous administration is performed for 15 days. The normal group and the model group are separately hypodermically injected with 0.9% normal saline (0.2 mL/20 g of body weight), once every 2 days, 7 times in total. The positive drug Adalimumab group is hypodermically injected with Adalimumab (8 mg/kg of body weight), once every 15 days, once in total. The test treatment group is hypodermically injected with mPEG-SC20k-HM-3 (20 mg/kg of body weight), once every 2 days, 7 times in total.
# Every 2 days, the thickness of the ankle, the width of the foot palm and the thickness of the toes of each group of mice are measured with a vernier caliper.
# Swelling degree of left ankle (cm)=swelling thickness of left ankle on day n of the experiment−measured initial thickness of left ankle.
# Swelling degree of right ankle (cm)=swelling thickness of right ankle on day n of the experiment−measured initial thickness of right ankle.
# The joints of the mouse paw are observed with naked eyes, and the joints are scored every 2 days from day 30. Scoring is performed in terms of level 0 to level 4, 5 levels in total. 0=no erythema or swelling; 1=slight erythema or swelling, with erythema or swelling on one of the front/hind toe joints; 2=erythema or swelling on more than one toe; 3=swelling of paw beneath the ankle or wrist joint; 4=swelling of all paws including the ankle joint. Four paws of the mice are scored separately, and the highest score is 16 points.
# After the secondary inflammation appears, systemic scoring is performed every 2 days, and the scoring standards are as follows:
# Hind foot: no swelling=0 point, swelling of one hind foot=1 point, swelling of two hind feet=2 points.
# Front foot: no swelling=0, swelling of one front foot=1 point, swelling of two front feet=2 points.
# Ears: no redness symptoms and nodules=0 point, redness symptoms or nodules of one ear=1 point, red symptoms and nodules of two ears=2 points.
# Nose: no swelling=0 point, obvious swelling=1 point.
# Tail: no nodule=0 point, nodules=1 point; the highest score is 8 points.
# TNF-α = assay: in vivo imaging of TNF-α expression, CIA transgenic TNF-luc mice; set-up: species or system BALB/c transgenic TNF-luc mice; settings: day 36; Adalimumab 8 mg/kg, mPEG-SC20k-HM-3 20 mg/kg
# Description: […] After the mice are lightly anesthetized with ether, the mice are fixed within 5-20 min and put into an in vivo imager, the imager is covered with an instrument lid, on-fluro and om-photo names in the desktop imaging interface of the computer are clicked, and the expose button is clicked to complete the fluorescence and white light photos of mice in vivo imaging. The specific imaging principle, operation steps, image processing and output are the same as those in the previous embodiment.
substance,measurement,setting,value
"mPEG-SC20k-Ile-Val-Arg-Arg-Ala-Asp-Arg-Ala-Ala-Val-Pro-Gly-Gly-Gly-Gly-Arg-Gly-Asp ({mPEG‑SC 20k}-IVRRADRAAVPGGGGRGD) [polypeptide III, No. 3]",left ankle swelling,[1]; 0 d,0.000 ± 0.000 cm
same,right ankle swelling changes,[1]; 0 d,0.000 ± 0.000 cm
same,left ankle swelling,[1]; 12 d,0.011 ± 0.004 cm
same,right ankle swelling changes,[1]; 12 d,0.005 ± 0.021 cm
same,left ankle swelling,[1]; 15 d,0.028 ± 0.023 cm
same,right ankle swelling changes,[1]; 15 d,0.003 ± 0.004 cm
same,left ankle swelling,[1]; 18 d,0.016 ± 0.008 cm
same,right ankle swelling changes,[1]; 18 d,0.011 ± 0.016 cm
same,left ankle swelling,[1]; 21 d,0.011 ± 0.010 cm
same,right ankle swelling changes,[1]; 21 d,0.010 ± 0.011 cm
same,left ankle swelling,[1]; 24 d,0.008 ± 0.006 cm
same,right ankle swelling changes,[1]; 24 d,0.007 ± 0.005 cm
same,left ankle swelling,[1]; 27 d,0.009 ± 0.004 cm
same,right ankle swelling changes,[1]; 27 d,0.004 ± 0.014 cm
same,left ankle swelling,[1]; 30 d,0.003 cm
same,right ankle swelling changes,[1]; 30 d,0.015 ± 0.001 cm
same,arthritis index score,[1]; 30 d,5.50 ± 0.71
same,clinical score,[1]; 30 d,4.50 ± 0.71
same,left ankle swelling,[1]; 33 d,0.007±0.013 cm
same,right ankle swelling changes,[1]; 33 d,0.018 ± 0.020 cm
same,arthritis index score,[1]; 33 d,7.00 ± 1.41
same,clinical score,[1]; 33 d,4.00 ± 0.00
same,left ankle swelling,[1]; 36 d,0.006 ± 0.006 cm
same,right ankle swelling changes,[1]; 36 d,0.006 ± 0.008 cm
same,arthritis index score,[1]; 36 d,6.50 ± 0.71
same,clinical score,[1]; 36 d,4.00 ± 0.00
same,left ankle swelling,[1]; 39 d,0.026±0.023 cm
same,right ankle swelling changes,[1]; 39 d,0.001 ± 0.007 cm
same,arthritis index score,[1]; 39 d,6.00 ± 0.00
same,clinical score,[1]; 39 d,4.00 ± 0.00
same,left ankle swelling,[1]; 42 d,0.004 ± 0.006 cm
same,right ankle swelling changes,[1]; 42 d,0.017 ± 0.004 cm
same,arthritis index score,[1]; 42 d,4.50 ± 0.71
same,clinical score,[1]; 42 d,4.00 ± 0.00
same,left ankle swelling,[1]; 45 d,0.011±0.004 cm
same,right ankle swelling changes,[1]; 45 d,0.000 ± 0.006 cm
same,arthritis index score,[1]; 45 d,4.50 ± 0.71
same,clinical score,[1]; 45 d,4.00 ± 0.00
same,left ankle swelling,[1]; 48 d,0.001±0.021 cm
same,right ankle swelling changes,[1]; 48 d,0.001 ± 0.007 cm
same,arthritis index score,[1]; 48 d,4.50 ± 0.71
same,clinical score,[1]; 48 d,5.00 ± 0.00
same,left ankle swelling,[1]; 51 d,0.023±0.007 cm and 0.023 cm
same,right ankle swelling changes,[1]; 51 d,0.005 ± 0.007 cm
same,arthritis index score,[1]; 51 d,4.50 ± 0.71
same,clinical score,[1]; 51 d,4.00 ± 0.00
same,systemic score,[1]; day 33,4.00±0.00
same,joint index score,[1]; day 36,6.50±0.71
same,swelling degree of right ankle,[1]; day 36,0.006±0.008
same,systemic score,[1]; day 36,4.00±0.00
same,joint index score,[1]; day 39,6.00±0.00
same,swelling degree of right ankle,[1]; day 39,0.001±0.008
same,systemic score,[1]; day 39,4.00±0.00
same,joint index score,[1]; day 42,4.50±0.7
same,swelling degree of right ankle,[1]; day 42,0.001±0.007
same,systemic score,[1]; day 42,4.00±0.00
same,joint index score,[1]; day 45,4.50±0.71
same,swelling degree of right ankle,[1]; day 45,0.000±0.006
same,systemic score,[1]; day 45,4.00±0.00
same,joint index score,[1]; day 48,4.50±0.71
same,swelling degree of right ankle,[1]; day 48,0.001±0.007
same,joint index score,[1]; day 51,4.50±0.71
same,swelling degree of right ankle,[1]; day 51,0.005±0.007
same,systemic score,[1]; day 51,4.00±0.00
same,in vivo fluorescence densities,TNF-α,19.02±9.69 10^5
